From US20260097047A1, “Small molecule inhibitors of the ribosome biogenesis factor NVL2” (Board of Regents, The University of Texas System, priority 2023, published 2026)

The molecules below were run on HCT116 cells (assay: Cell viability assay (CellTiter-Glo, 72 hours) in HCT116 human colorectal cancer cells). Settings: Homo sapiens, HCT-116; Table 3; HCT116, 72 hours; read-out: Activity.
Assay type: cell-based
Procedure: Cell culture: The HCT116 cell line was obtained from ATCC and cultured in Dulbecco's Modified Eagle's Medium (DMEM)-high glucose (Sigma Aldrich #D5796) supplemented with 10% fetal bovine serum (FBS) (Sigma-Aldrich #F2442) and 2 mM L-Glutamine (Sigma Aldrich #G7513). Cells were cultured at 37° C. in 5% CO2. The identity of all cell lines was confirmed by short tandem repeat (STR) analysis and confirmed to be mycoplasma-free using a PCR based assay (Genatlantis).
Cell viability assay: In 96-well assay plates (Corning #2903), 2,000 cells were plated per well in 100 μL of medium and allowed to adhere overnight. The next day, compounds suspended in DMSO were dispensed to the assayed wells using a D300e Digital Dispenser (Tecan). All wells were normalized to 0.5% DMSO. 72 hours after incubation at 37° C. in 5% CO2, cell viability was assayed using an ATP-based luminescent viability assay, CellTiter-Glo (Promega #G8462). Substrate was mixed 1:1 with phosphate-buffered saline (PBS) supplemented with 1% Triton X-100, and 40 μL of this mixture was added to the assay wells. Plates were shaken on a microplate shaker for 10 minutes at room temperature. Luminescence (CellTiter-Glo) was recorded using a Synergy 2 microplate reader (BioTek). In Prism 9 software (GraphPad), ten-point dose response curves were plotted with baseline-correction to the vehicle control well, and IC50 values were calculated by curve fitting using asymmetric (five parameter), least squares fit.

Compound	IC50 [nM]
CC#CCN1C(=O)c2ccccc2Sc2cc(NC(=O)Nc3ccc(OC(F)F)cc3)ccc21 [Table 3: —CH2CCMe; 4-F2HCOPh; CH/CH, 1-(10-(But-2-yn-1-yl)-11-oxo-10,11-dihydrodibenzo[b,f][1,4]thiazepin-7-yl)-3-(4-(difluoromethoxy)phenyl) urea]	< 500

Same assay, conditions: Homo sapiens, HCT-116; Table 5; HCT116, 72 hours; read-out: Activity

Compound	IC50 [nM]
CCC/C=C/CN1C(=O)c2ccccc2Sc2cc(Nc3ncccc3C)ccc21 [(E)-10-(Hex-2-en-1-yl)-7-((3-methylpyridin-2-yl)amino)dibenzo[b,f][1,4]thiazepin-11 (10H)-one]	< 500
CCC/C=C/CN1C(=O)c2ccccc2Sc2cc(Nc3cc(C4CC4)ccn3)ccc21 [(E)-7-((4-Cyclopropylpyridin-2-yl)amino)-10-(hex-2-en-1-yl)dibenzo[b,f][1,4]thiazepin-11(10H)-one]	500 to 1000
CC#CCN1C(=O)c2ccccc2Sc2cc(Nc3ncc(C)cc3F)ccc21 [10-(But-2-yn-1-yl)-7-((3-fluoro-5-methylpyridin-2-yl)amino)dibenzo[b,f][1,4]thiazepin-11 (10H)-one]	< 500
CC#CCN1C(=O)c2ccccc2Sc2cc(Nc3nc(C#N)ccc3C)ccc21 [6-((10-(But-2-yn-1-yl)-11-oxo-10,11-dihydrodibenzo[b,f][1,4]thiazepin-7-yl)amino)-5-methylpicolinonitrile]	< 500
CC#CCN1C(=O)c2ccc(F)cc2Sc2cc(Nc3ncccc3OC)ccc21 [10-(But-2-yn-1-yl)-3-fluoro-7-((3-methoxypyridin-2-yl)amino)dibenzo[b,f][1,4]thiazepin-11 (10H)-one]	< 500
CC#CCN1C(=O)c2ccccc2Sc2cc(Nc3cnn(C)c3)ccc21 [10-(But-2-yn-1-yl)-7-((1-methyl-1H-pyrazol-4-yl)amino)dibenzo[b,f][1,4]thiazepin-11 (10H)-one]	< 500
CC#CCN1C(=O)c2ccccc2Sc2cc(Nc3nccc(C#N)c3F)ccc21 [2-((10-(But-2-yn-1-yl)-11-oxo-10,11-dihydrodibenzo[b,f][1,4]thiazepin-7-yl)amino)-3-fluoroisonicotinonitrile]	< 500
CC#CCN1C(=O)c2ccccc2Sc2cc(Nc3cc(C#N)ccn3)ccc21 [2-((10-(But-2-yn-1-yl)-11-oxo-10,11-dihydrodibenzo[b,f][1,4]thiazepin-7-yl)amino) isonicotinonitrile]	< 500
CC#CCN1C(=O)c2ccccc2Sc2cc(Nc3ccncc3)ccc21 [10-(But-2-yn-1-yl)-7-(pyridin-4-ylamino)dibenzo[b,f][1,4]thiazepin-11 (10H)-one]	< 500

Same assay, conditions: Homo sapiens, HCT-116; Table 6; HCT116, 72 hours; read-out: Activity

Compound	IC50 [nM]
CC#CCN1C(=O)c2ccccc2Sc2cc(NC3CCOC3)ccc21 (stereo not drawn) [10-(But-2-yn-1-yl)-7-((tetrahydrofuran-3-yl)amino)dibenzo[b,f][1,4]thiazepin-11 (10H)-one]	< 500

Same assay, conditions: Table 1; HCT116, 72 hours; read-out: Activity

Compound	IC50 [nM]
CC#CCN1C(=O)c2ccccc2Sc2cc(NC(=O)N3CCC3)cnc21 [Table 1: —CH2CCMe; azetidin-1-yl; CH; N]	< 500

Same assay, conditions: Table 3; HCT116, 72 hours; read-out: Activity

Compound	IC50 [nM]
CC#CCN1C(=O)c2ccccc2Sc2cc(NC(=O)NC3CC(COC)C3)cnc21 (stereo not drawn) [Table 3: —CH2CCMe; 3-MeOCH2-cBu; CH/N]	< 500

Same assay, conditions: Table 4; HCT116, 72 hours; read-out: Activity

Compound	IC50 [nM]
CC#CCN1C(=O)c2ccccc2Sc2cc(NC(=S)NC3CC(COC)C3)ccc21 (stereo not drawn) [Table 4: —CH2CCMe; 3-MeOCH2-cBu; CH]	< 500
CC#CCN1C(=O)c2ccccc2Sc2cc(NC(=S)Nc3ccc(OC)cc3)ccc21 [Table 4: —CH2CCMe; 4-MeOPh; CH]	< 500

Same assay, conditions: Table 5; HCT116, 72 hours; read-out: Activity

Compound	IC50 [nM]
CC=CCN1C(=O)c2ccccc2Sc2cc(Nc3nccnc3C)cnc21	< 500
CC=CCN1C(=O)c2ccccc2Sc2cc(Nc3nccnc3C)ccc21	< 500
Cc1ccc(F)c(Nc2ccc3c(c2)Sc2ccccc2C(=O)N3CC#CCl)n1	< 500
CC#CCN1C(=O)c2ccccc2Sc2cc(Nc3ccc(C)nn3)cnc21	< 500
C#CCN1C(=O)c2ccccc2Sc2cc(Nc3nc(C)cnc3C)ccc21	< 500
CC=CCN1C(=O)c2ccccc2Sc2cc(Nc3ncccc3C)cnc21	< 500

Same assay, conditions: Table 6; HCT116, 72 hours; read-out: Activity

Compound	IC50 [nM]
CC#CCN1C(=O)c2ccccc2Sc2cc(NC3CC(O)C3)cnc21 (stereo not drawn) [Table 6: —CH2CCMe; 3-HOcBu; CH/N; S]	< 500
CC#CCN1C(=O)c2ccccc2Sc2cc(NC3CC(OC)C3)cnc21 (stereo not drawn) [Table 6: —CH2CCMe; 3-MeOcBu; CH/N; S]	< 500

Same assay, conditions: Table 7; cell viability assay, CellTiter-Glo, 72 hours; scaffold drawing 42 with R^2, R^3, X/Y, Z; read-out: Activity

Compound	IC50 [nM]
COCCN1C(=O)c2ccccc2Sc2cc(NC(=O)c3ccc(OC)cc3F)ccc21 [—(CH2)2OMe; 2-F,4-MeOPh; CH/CH; S]	500 to 1000
COCCN1C(=O)c2ccccc2Sc2cc(NC(=O)c3ncccn3)ccc21 [—(CH2)2OMe; pyrimidin-2-yl; CH/CH; S]	1000 to 5000
C#CCOCCN1C(=O)c2ccccc2Sc2cc(NC(=O)c3ccc(OC)c(F)c3)ccc21 [—(CH2)2OCH2CCH; 3-F,4-MeOPh; CH/CH; S]	1000 to 5000
COCCN1C(=O)c2ccccc2Sc2cc(NC(=O)c3cnccn3)ccc21 [—(CH2)2OMe; pyrazin-2-yl; CH/CH; S]	1000 to 5000
COCCN1C(=O)c2ccccc2Sc2cc(NC(=O)c3ccc(OC(F)(F)F)c(F)c3)ccc21 [—(CH2)2OMe; 3-F,4-F3COPh; CH/CH; S]	1000 to 5000
COCCN1C(=O)c2ccccc2Sc2cc(NC(=O)c3cocn3)ccc21 [—(CH2)2OMe; oxazol-4-yl; CH/CH; S]	1000 to 5000
O=C(Nc1ccc2c(c1)Sc1ccccc1C(=O)N2CCO)c1ccoc1 [—(CH2)2OH; furan-3-yl; CH/CH; S]	1000 to 5000

Same assay, conditions: Table 8; analogs of scaffold drawing 43 defined by R^2, R^3, X/Y, W; read-out: Activity (IC50 class, cell viability assay)

Compound	IC50 [nM]
CO[C@H]1C[C@H](C(=O)Nc2cnc3c(c2)Sc2cc(Cl)ccc2C(=O)N3CC#CCl)C1 [—CH2CCCl; trans-3-MeOcBu; CCI/CH; N]	< 500
CC#CCN1C(=O)c2ccccc2Sc2cc(NC(=O)C34CC(OC)(C3)C4)ccc21	< 500
CC#CCN1C(=O)c2ccc(Cl)cc2Sc2cc(NC(=O)C3CC4(COC4)C3)ccc21	< 500
CC#CCN1C(=O)c2ccccc2Sc2cc(NC(=O)c3cccc(C(=O)N(C)C)c3)ccc21 [—CH2CCMe; 3-Me2NC(O)Ph; CH/CH; CH]	< 500
C#CCN1C(=O)c2ccccc2Sc2cc(NC(=O)[C@H]3C[C@H](OC)C3)ccc21 [—CH2CCH; trans-3-MeOcBu; CH/CH; CH]	< 500
N#CC12CC(C(=O)Nc3cnc4c(c3)Sc3ccccc3C(=O)N4CC#CC3CC3)(C1)C2	< 500
CC#CCN1C(=O)c2ccc(C#N)cc2Sc2cc(NC(=O)C=CCOC)ccc21 [—CH2CCMe; CH—═CHCH2OMe; CCN/CH; CH]	< 500
CC#CCN1C(=O)c2ccc(Cl)cc2Sc2cc(NC(=O)C3CCOC3)ccc21 (stereo not drawn)	< 500
CO[C@H]1C[C@H](C(=O)Nc2ccc3c(c2)Sc2ccc(F)cc2C(=O)N3CC#CCl)C1 [—CH2CCCl; trans-3-MeOcBu; CH/CF; CH]	< 500
CC#CCN1C(=O)c2cc(F)ccc2Sc2cc(NC(=O)C3CCCO3)cnc21 (stereo not drawn) [—CH2CCMe; tetrahydrofuran-2-yl; CH/CF; N]	< 500
CC#CCN1C(=O)c2ccc(Cl)cc2Sc2cc(NC(=O)C3CCCO3)cnc21 (stereo not drawn)	< 500
O=C(CC1COC1)Nc1cnc2c(c1)Sc1ccccc1C(=O)N2CC#CC1CC1 [—CH2CC^cPr; (oxetan-3-yl)CH2; CH/CH; N]	< 500
CC#CCN1C(=O)c2cc(F)ccc2Sc2cc(NC(=O)c3ccc4oc(=O)n(C)c4c3)ccc21	< 500
CC#CCN1C(=O)c2ccccc2Sc2cc(NC(=O)CCCO)cnc21 [—CH2CCMe; (CH2)3 OH; CH/CH; N]	< 500
COCCC(C)C(=O)Nc1cnc2c(c1)Sc1ccccc1C(=O)N2CC#CC1CC1 (stereo not drawn) [—CH2CC^cPr; MeO(CH2)2CHMe-; CH/CH; N]	< 500
CC#CCN1C(=O)c2ccccc2Sc2cc(NC(=O)NCCOC)cnc21 [—CH2CCMe; NH(CH2)2OMe; CH/CH; N]	< 500
O=C(CC1COC1)Nc1ccc2c(c1)Sc1ccc(F)cc1C(=O)N2CC#CC1CC1 [—CH2CC^cPr; (oxetan-3-yl)CH2; CH/CF; CH]	< 500
CO[C@H]1C[C@H](C(=O)Nc2cnc3c(c2)Sc2ccccc2C(=O)N3CC#CC(F)(F)F)C1 [—CH2CCCF3; trans-3-MeOcBu; CH/CH; N]	< 500

Same assay, conditions: Table 9; HCT116, 72 hours; read-out: Activity

Compound	IC50 [nM]
COCC=CC(=O)Nc1ccc2c(c1)C(C)c1ccccc1C(=O)N2CC#CC1CC1 (stereo not drawn) [Table 9: —CH2CC^cPr; CH═CHCH2OMe; CHMe]	< 500
CC1c2ccccc2C(=O)N(CC#CC2CC2)c2ccc(NC(=O)C3CC4(CC(O)C4)C3)cc21 (stereo not drawn)	< 500
CC#CCN1C(=O)c2ccccc2C(C)c2cc(NC(=O)C3CCOC3)ccc21 (stereo not drawn)	< 500
CC#CCN1C(=O)c2ccccc2C(C)(O)c2cc(NC(=O)C3CC(COC)C3)ccc21 (stereo not drawn) [Table 9: —CH2CCMe; 3-MeOCH2-cBu; CMeOH]	< 500

Same assay, conditions: cell viability assay; Table 10 analogs of scaffold drawing 45 defined by R2, R3, X/Y, W; read-out: Activity

Compound	IC50 [nM]
C#CCN1C(=O)c2ccccc2Sc2cc(NC(=O)[C@H]3C[C@H](OC)C3)ccc21 [—CH2CCH; trans-3-MeOcBu; CH/CH; CH]	< 500
COC12CC(C(=O)Nc3cnc4c(c3)Sc3ccccc3C(=O)N4CC#CCF)(C1)C2	< 500
